Source: patent US12343319B2, “Compositions and methods for treatment of diseases and disorders” (Atai Therapeutics Inc., priority 2023, dated 2025)
pEC50, pIC50, pKi: −log10 of the molar value. Read-outs that look alike come from different tables or passages of the source.

Columns and labels:
Male Sprague-Dawley rats = assay: Rat forced swim test, immobility frequency; format: in vivo; settings: 3 and 30 mg/kg, i.p. at 23.5, 16 and 0.5 hours prior; 5-minute swim test
Protocol: Male Sprague-Dawley rats were placed individually in clear acrylic swim chambers (40 cm height×20.3 cm diameter) filled to 16 cm for a 15-minute pre-swim session on day 1 and filled to 30 cm for a 5-minute swim test session 24 hours later. Rats (n=10 per treatment group) were administered compound 2-1 (3, 10, 30 mg/kg, i.p., 1 mL/kg, based on weight of the free base) or vehicle (40% (w/v) 2-HPBCD in water, i.p.) at 23.5, 16 and 0.5 hours prior to the swim test. The rapid-acting antidepressant, ketamine (10 mg/kg, i.p.), was included in the study as a positive control condition and injected once 24 hours prior to the swim test.

5-HT2A receptor = 5-HT2A receptor (Mus musculus, UniProt P35363); assay: 5-HT2A receptor binding in mouse frontal cortical tissue
Sequence of 5-HT2A receptor (P35363 whole entry): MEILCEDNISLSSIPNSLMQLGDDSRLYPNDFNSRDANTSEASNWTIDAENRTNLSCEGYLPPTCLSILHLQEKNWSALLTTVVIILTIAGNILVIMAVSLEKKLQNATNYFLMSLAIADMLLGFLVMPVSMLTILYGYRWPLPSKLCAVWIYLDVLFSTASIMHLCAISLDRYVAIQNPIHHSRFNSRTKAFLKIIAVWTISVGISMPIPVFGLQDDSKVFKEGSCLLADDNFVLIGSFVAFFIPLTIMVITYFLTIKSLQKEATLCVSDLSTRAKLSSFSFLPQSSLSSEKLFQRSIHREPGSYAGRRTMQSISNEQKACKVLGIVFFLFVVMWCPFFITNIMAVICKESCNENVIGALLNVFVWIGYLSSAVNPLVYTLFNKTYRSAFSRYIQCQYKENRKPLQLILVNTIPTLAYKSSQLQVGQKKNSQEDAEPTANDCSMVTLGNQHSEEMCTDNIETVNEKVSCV

[1] = Terminal plasma and brain concentrations in mice; format: in vivo; settings: C57BL/6J, mouse, intraperitoneal
Protocol: Prior to the onset of procedures, animals were weighed and allocated into 5 groups by a statistician based on body weight. Animals sharing a cage were dosed with the same drug treatments to avoid cross contamination between groups. Animals were dosed intraperitoneally with psilocybin (3 mg/kg), or one of 3 doses of compound 2-2 (1 mg/kg, 3 mg/kg, 10 mg/kg). Dosing was to a timed scheduled. Animals were weighed prior to dosing and the body weight recorded. Food and water intake were not monitored. The animals were dosed at time “0” and then returned to the home cage. Behaviors of note after dosing were recorded. Each animal was humanely killed (by exposure to increasing CO2 concentration and confirmation of death by cervical dislocation) to allow terminal blood sampling to take place 15 minutes after dosing. The brain sampling was performed immediately after blood sampling was completed for each animal.
Post-mortem blood samples (approx. 0.5 ml) were collected from all animals by cardiac puncture for DMPK analysis, dispensed into a LH-coated tube. The blood samples were gently inverted, centrifuged promptly (2400 g for 5 minutes at 4° C.) and 150 μl of plasma from each animal was placed into a 96-well plate. Plasma samples from group B were stabilized with DTT (50 mM; 1:10). All plasma samples were frozen on dry ice and stored at approximately −80° C. prior to analysis. Whole brains were removed from all animals, rinsed briefly with saline and blot dried. The left and right frontal cortices (˜25 mg each frontal cortex) were dissected separately from the brain, weighed, placed in microtubes, frozen on dry ice and stored at −20° C. to measure receptor occupancy. The remaining brain tissue was weighed, placed in homogenization tubes, frozen on dry ice, and stored at −80° C. prior to transferring (on dry ice) to Signature DMPK with the plasma samples.

[2] = molecular target: T1, 5-HT2A receptors in the mouse frontal cortex (Mus musculus, UniProt P35363); assay: Ex vivo 5-HT2A receptor occupancy ([3H]cimbi-36) in mouse frontal cortex
T1 construct: Left frontal cortices from each animal were homogenized individually; from tissue
T1 sequence (P35363 whole entry): as above

With COc1ccc(OC)c(CCNCc2cc(C)cc(Cl)c2)c1 [Compound 2-1, N-(3-chloro-5-methylbenzyl)-2-(2,5-dimethoxyphenyl)ethan-1-amine] the “frequency of immobility compared to vehicle” value (Male Sprague-Dawley rats) was “significantly decreased”.
COc1ccc(OC)c(CCNCc2cc(C)cc(F)c2)c1 [Compound 2-2, 2-(2,5-dimethoxyphenyl)-N-(3-fluoro-5-methylbenzyl)ethan-1-amine] showed a pIC50 (5-HT2A receptor) of 7.68, a pKi (5-HT2A receptor; Ki, Mean (Mouse), mouse frontal cortical tissue) of 8.02 and a concentration at 15 min ([1]; brain, 1 mg/kg, 1 mg/kg IP, read-out: Terminal Brain Conc (ng/g) at 15 min, Mean) of 182 ng/g. The concentration at 15 min ([1]; brain, 1 mg/kg, 1 mg/kg IP, read-out: Terminal Brain Free Concentration (uM) at 15 min, Mean) was 0.01 µM, the concentration at 15 min ([1]; brain, 1 mg/kg, 1 mg/kg IP, read-out: Terminal Brain Total Concentration (uM) at 15 min, Mean) was 0.6 µM and the concentration at 15 min ([1]; brain, 3 mg/kg, 3 mg/kg IP, read-out: Terminal Brain Free Concentration (uM) at 15 min, Mean) was 0.039 µM. It also gave a concentration at 15 min ([1]; brain, 10 mg/kg, 10 mg/kg IP, read-out: Terminal Brain Conc (ng/g) at 15 min, Mean) of 3280 ng/g, a concentration at 15 min ([1]; brain, 10 mg/kg, 10 mg/kg IP, read-out: Terminal Brain Free Concentration (uM) at 15 min, Mean) of 0.175 µM and a concentration at 15 min ([1]; brain, 10 mg/kg, 10 mg/kg IP, read-out: Terminal Brain Total Concentration (uM) at 15 min, Mean) of 10.8 µM. For the same compound, the concentration at 15 min ([1]; plasma, 1 mg/kg, 1 mg/kg IP, read-out: Terminal Plasma Conc (ng/mL) at 15 min, Mean) was 60.1 ng/mL, the concentration at 15 min ([1]; plasma, 1 mg/kg, 1 mg/kg IP, read-out: Terminal Plasma Free Concentration (uM) at 15 min, Mean) was 0.016 µM and the concentration at 15 min ([1]; plasma, 1 mg/kg, 1 mg/kg IP, read-out: Terminal Plasma Total Concentration (uM) at 15 min, Mean) was 0.2 µM. It also gave a concentration at 15 min ([1]; plasma, 3 mg/kg, 3 mg/kg IP, read-out: Terminal Plasma Free Concentration (uM) at 15 min, Mean) of 0.082 µM, a concentration at 15 min ([1]; plasma, 10 mg/kg, 10 mg/kg IP, read-out: Terminal Plasma Conc (ng/mL) at 15 min, Mean) of 1020 ng/mL and a concentration at 15 min ([1]; plasma, 10 mg/kg, 10 mg/kg IP, read-out: Terminal Plasma Free Concentration (uM) at 15 min, Mean) of 0.277 µM. For the same compound, the concentration at 15 min ([1]; plasma, 10 mg/kg, 10 mg/kg IP, read-out: Terminal Plasma Total Concentration (uM) at 15 min, Mean) was 3.38 µM, the pEC50 [2] was 5.71 and the “ex vivo occupancy of 5-HT2A receptors (RO)” value ([2]; across 1, 3, 10 mg/kg IP) was 21-60%. For the same compound, the “brain concentration at 50% 5-HT2A RO” value ([2]; in brain) was 1608 ng/g, the receptor occupancy at 1 mg/kg ([2]; mouse, 1 mg/kg IP, 15 minutes post dosing, read-out: % Receptor Occupancy (RO)) was 21% and the remaining activity at 1 mg/kg ([2]; mouse, 1 mg/kg IP, 15 minutes post dosing, read-out: % of Control Binding) was 79%. It also gave a receptor occupancy at 3 mg/kg ([2]; mouse, 3 mg/kg IP, 15 minutes post dosing, read-out: % Receptor Occupancy (RO)) of 37%, a remaining activity at 3 mg/kg ([2]; mouse, 3 mg/kg IP, 15 minutes post dosing, read-out: % of Control Binding) of 63% and a receptor occupancy at 10 mg/kg ([2]; mouse, 10 mg/kg IP, 15 minutes post dosing, read-out: % Receptor Occupancy (RO)) of 60%. The remaining activity at 10 mg/kg ([2]; mouse, 10 mg/kg IP, 15 minutes post dosing, read-out: % of Control Binding) was 40% and the ED50 ([2]; mouse, IP, non-linear regression, read-out: dose at 50% 5-HT2A RO) was 6.14 mg/kg.
